Assay results taken from patent publication US8192962B2, “Processes for detecting toxic substances” (Daikin Industries, Ltd., priority 2001, dated 2012).

Test system: Unknown protein yeast genes
Assay: DNA chip mRNA expression in yeast, unknown protein yeast genes (Table 1)
Format: cell-based, Saccharomyces cerevisiae S288C
Method in brief: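 Whole-genome yeast DNA chip hybridization (65° C., >12 h) of Cy-labeled cDNA from S288C cells exposed 2 h at 25° C. to a sub-lethal toxicant dose in YPD; value is intensity relative to chemical-free control.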

Structure (SMILES): CCCCCCCCCCCCOS(=O)(=O)[O-].[Na+] [(18), sodium lauryl sulfate]
- The level of expressed mRNA in the presence of chemical substance/The level of expressed mRNA in the absence of chemical substance (yeast gene YKL151C, incubated two hours with chemical substance): 1.8
- The level of expressed mRNA in the presence of chemical substance/The level of expressed mRNA in the absence of chemical substance (yeast gene YKL153W, incubated two hours with chemical substance): 1.3
- The level of expressed mRNA in the presence of chemical substance/The level of expressed mRNA in the absence of chemical substance (yeast gene YKL195W, incubated two hours with chemical substance): 1.6
- The level of expressed mRNA in the presence of chemical substance/The level of expressed mRNA in the absence of chemical substance (yeast gene YKR091W, incubated two hours with chemical substance): 1.3
- The level of expressed mRNA in the presence of chemical substance/The level of expressed mRNA in the absence of chemical substance (yeast gene YLR054C, incubated two hours with chemical substance): 1.1
- The level of expressed mRNA in the presence of chemical substance/The level of expressed mRNA in the absence of chemical substance (yeast gene YLR149C, incubated two hours with chemical substance): 3.0
- The level of expressed mRNA in the presence of chemical substance/The level of expressed mRNA in the absence of chemical substance (yeast gene YLR152C, incubated two hours with chemical substance): 1.8
- The level of expressed mRNA in the presence of chemical substance/The level of expressed mRNA in the absence of chemical substance (yeast gene YLR194C, incubated two hours with chemical substance): 0.9
- The level of expressed mRNA in the presence of chemical substance/The level of expressed mRNA in the absence of chemical substance (yeast gene YLR324W, incubated two hours with chemical substance): 1.2
- The level of expressed mRNA in the presence of chemical substance/The level of expressed mRNA in the absence of chemical substance (yeast gene YLR350W, incubated two hours with chemical substance): 1.1
- The level of expressed mRNA in the presence of chemical substance/The level of expressed mRNA in the absence of chemical substance (yeast gene YLR387C, incubated two hours with chemical substance): 1.4
- The level of expressed mRNA in the presence of chemical substance/The level of expressed mRNA in the absence of chemical substance (yeast gene YLR460C): 1.1
- The level of expressed mRNA in the presence of chemical substance/The level of expressed mRNA in the absence of chemical substance (yeast gene YML117W, incubated two hours with chemical substance): 1.3
- The level of expressed mRNA in the presence of chemical substance/The level of expressed mRNA in the absence of chemical substance (yeast gene YMR009W, incubated two hours with chemical substance): 2.5
- The level of expressed mRNA in the presence of chemical substance/The level of expressed mRNA in the absence of chemical substance (yeast gene YMR067C, incubated two hours with chemical substance): 1.0
- The level of expressed mRNA in the presence of chemical substance/The level of expressed mRNA in the absence of chemical substance (yeast gene YMR090W): 2.8
- The level of expressed mRNA in the presence of chemical substance/The level of expressed mRNA in the absence of chemical substance (yeast gene YMR095C, incubated two hours with chemical substance): 1.0
- The level of expressed mRNA in the presence of chemical substance/The level of expressed mRNA in the absence of chemical substance (yeast gene YMR097C, incubated two hours with chemical substance): 1.8
- The level of expressed mRNA in the presence of chemical substance/The level of expressed mRNA in the absence of chemical substance (yeast gene YMR102C, incubated two hours with chemical substance): 2.8
- The level of expressed mRNA in the presence of chemical substance/The level of expressed mRNA in the absence of chemical substance (yeast gene YMR107W, incubated two hours with chemical substance): 8.1
- The level of expressed mRNA in the presence of chemical substance/The level of expressed mRNA in the absence of chemical substance (yeast gene YMR180C, incubated two hours with chemical substance): 1.7
- The level of expressed mRNA in the presence of chemical substance/The level of expressed mRNA in the absence of chemical substance (yeast gene YMR184W, incubated two hours with chemical substance): 2.0
- The level of expressed mRNA in the presence of chemical substance/The level of expressed mRNA in the absence of chemical substance (yeast gene YMR191W, incubated two hours with chemical substance): 2.1
- The level of expressed mRNA in the presence of chemical substance/The level of expressed mRNA in the absence of chemical substance (yeast gene YMR295C, incubated two hours with chemical substance): 3.4
- The level of expressed mRNA in the presence of chemical substance/The level of expressed mRNA in the absence of chemical substance (yeast gene YMR315W): 2.8
- The level of expressed mRNA in the presence of chemical substance/The level of expressed mRNA in the absence of chemical substance (yeast gene YMR316W, incubated two hours with chemical substance): 6.4
- The level of expressed mRNA in the presence of chemical substance/The level of expressed mRNA in the absence of chemical substance (yeast gene YNL044W, incubated two hours with chemical substance): 3.4
- The level of expressed mRNA in the presence of chemical substance/The level of expressed mRNA in the absence of chemical substance (yeast gene YNL074C, incubated two hours with chemical substance): 1.3
- The level of expressed mRNA in the presence of chemical substance/The level of expressed mRNA in the absence of chemical substance (yeast gene YNL092W, incubated two hours with chemical substance): 1.6
- The level of expressed mRNA in the presence of chemical substance/The level of expressed mRNA in the absence of chemical substance (yeast gene YNL115C, incubated two hours with chemical substance): 2.6
- The level of expressed mRNA in the presence of chemical substance/The level of expressed mRNA in the absence of chemical substance (yeast gene YNL144C): 2.8
- The level of expressed mRNA in the presence of chemical substance/The level of expressed mRNA in the absence of chemical substance (yeast gene YNL156C, incubated two hours with chemical substance): 1.9
- The level of expressed mRNA in the presence of chemical substance/The level of expressed mRNA in the absence of chemical substance (yeast gene YNL234W, incubated two hours with chemical substance): 1.0
- The level of expressed mRNA in the presence of chemical substance/The level of expressed mRNA in the absence of chemical substance (yeast gene YNL281W, incubated two hours with chemical substance): 0.9
- The level of expressed mRNA in the presence of chemical substance/The level of expressed mRNA in the absence of chemical substance (yeast gene YNL305C, incubated two hours with chemical substance): 1.6
- The level of expressed mRNA in the presence of chemical substance/The level of expressed mRNA in the absence of chemical substance (yeast gene YNR068C, incubated two hours with chemical substance): 1.0
- The level of expressed mRNA in the presence of chemical substance/The level of expressed mRNA in the absence of chemical substance (yeast gene YOL032W, incubated two hours with chemical substance): 1.8
- The level of expressed mRNA in the presence of chemical substance/The level of expressed mRNA in the absence of chemical substance (yeast gene YOL036W, incubated two hours with chemical substance): 0.9
- The level of expressed mRNA in the presence of chemical substance/The level of expressed mRNA in the absence of chemical substance (yeast gene YOL047C, incubated two hours with chemical substance): 1.0
- The level of expressed mRNA in the presence of chemical substance/The level of expressed mRNA in the absence of chemical substance (yeast gene YOL071W, incubated two hours with chemical substance): 2.0
- The level of expressed mRNA in the presence of chemical substance/The level of expressed mRNA in the absence of chemical substance (yeast gene YOL082W, incubated two hours with chemical substance): 2.5
- The level of expressed mRNA in the presence of chemical substance/The level of expressed mRNA in the absence of chemical substance (yeast gene YOL083W, incubated two hours with chemical substance): 3.2
- The level of expressed mRNA in the presence of chemical substance/The level of expressed mRNA in the absence of chemical substance (yeast gene YOL117W, incubated two hours with chemical substance): 1.4
- The level of expressed mRNA in the presence of chemical substance/The level of expressed mRNA in the absence of chemical substance (yeast gene YOL131W, incubated two hours with chemical substance): 0.9
- The level of expressed mRNA in the presence of chemical substance/The level of expressed mRNA in the absence of chemical substance (yeast gene YOL150C): 2.2
- The level of expressed mRNA in the presence of chemical substance/The level of expressed mRNA in the absence of chemical substance (yeast gene YOL162W, incubated two hours with chemical substance): 0.9
- The level of expressed mRNA in the presence of chemical substance/The level of expressed mRNA in the absence of chemical substance (yeast gene YOR019W, incubated two hours with chemical substance): 2.8
- The level of expressed mRNA in the presence of chemical substance/The level of expressed mRNA in the absence of chemical substance (yeast gene YOR197W, incubated two hours with chemical substance): 1.5
- The level of expressed mRNA in the presence of chemical substance/The level of expressed mRNA in the absence of chemical substance (yeast gene YPL087W, incubated two hours with chemical substance): 2.7
- The level of expressed mRNA in the presence of chemical substance/The level of expressed mRNA in the absence of chemical substance (yeast gene YPL196W, incubated two hours with chemical substance): 2.3
- The level of expressed mRNA in the presence of chemical substance/The level of expressed mRNA in the absence of chemical substance (yeast gene YPL206C, incubated two hours with chemical substance): 1.9
- The level of expressed mRNA in the presence of chemical substance/The level of expressed mRNA in the absence of chemical substance (yeast gene YPL222W, incubated two hours with chemical substance): 0.9
- The level of expressed mRNA in the presence of chemical substance/The level of expressed mRNA in the absence of chemical substance (yeast gene YPR023C, incubated two hours with chemical substance): 1.1
- The level of expressed mRNA in the presence of chemical substance/The level of expressed mRNA in the absence of chemical substance (yeast gene YPR151C, incubated two hours with chemical substance): 1.4
